From ChEMBL document CHEMBL1126513, “Quinuclidine-based NK-1 antagonists I: 3-benzyloxy-1-azabicyclo[2.2.2]octanes” (Bioorg Med Chem Lett, 1993)

Target: Substance-P receptor (Homo sapiens, UniProt P25103)
Assay: Displacement of [125]Substance P Binding from human Neurokinin NK1 receptor in CHO Cells

Substance-P receptor, sequence (P25103 whole entry): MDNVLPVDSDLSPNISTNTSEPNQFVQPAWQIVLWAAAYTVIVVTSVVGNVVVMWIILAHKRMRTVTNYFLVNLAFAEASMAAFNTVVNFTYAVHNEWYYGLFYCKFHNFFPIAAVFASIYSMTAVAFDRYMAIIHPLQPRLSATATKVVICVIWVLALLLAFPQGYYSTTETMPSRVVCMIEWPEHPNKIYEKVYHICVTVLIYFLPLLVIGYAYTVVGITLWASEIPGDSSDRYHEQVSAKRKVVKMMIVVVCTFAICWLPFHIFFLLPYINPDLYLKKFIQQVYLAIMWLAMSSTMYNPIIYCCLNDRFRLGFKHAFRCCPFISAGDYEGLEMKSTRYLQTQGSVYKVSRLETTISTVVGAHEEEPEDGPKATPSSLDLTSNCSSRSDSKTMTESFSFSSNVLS

SMILES	IC50 [nM]
Cc1cccc(CO[C@H]2C3CCN(CC3)[C@H]2C(c2ccccc2)c2ccccc2)c1	21
O=C(N[C@H]1C2CCN(CC2)[C@H]1C(c1ccccc1)c1ccccc1)c1ccccc1	> 1000
O=S(=O)(N[C@H]1C2CCN(CC2)[C@H]1C(c1ccccc1)c1ccccc1)c1ccccc1	> 1000
c1ccc(CCN[C@H]2C3CCN(CC3)[C@H]2C(c2ccccc2)c2ccccc2)cc1	700
O=C(Nc1ccccc1)N[C@H]1C2CCN(CC2)[C@H]1C(c1ccccc1)c1ccccc1	> 1000
Cc1ccccc1CO[C@H]1C2CCN(CC2)[C@H]1C(c1ccccc1)c1ccccc1	183
Cc1ccc(C)c(CO[C@H]2C3CCN(CC3)[C@H]2C(c2ccccc2)c2ccccc2)c1	48
O=C(Nc1ccccc1)O[C@H]1C2CCN(CC2)[C@H]1C(c1ccccc1)c1ccccc1	> 1000
S=C(Nc1ccccc1)N[C@H]1C2CCN(CC2)[C@H]1C(c1ccccc1)c1ccccc1	> 1000
O=C(N[C@H]1C2CCN(CC2)[C@H]1C(c1ccccc1)c1ccccc1)Oc1ccccc1	> 1000
c1ccc(CO[C@H]2C3CCN(CC3)[C@H]2C(c2ccccc2)c2ccccc2)cc1	110000
Cc1ccc(CO[C@H]2C3CCN(CC3)[C@H]2C(c2ccccc2)c2ccccc2)cc1	290
Cc1ccc(CO[C@H]2C3CCN(CC3)[C@H]2C(c2ccccc2)c2ccccc2)cc1C	197
c1ccc(CN[C@H]2C3CCN(CC3)[C@H]2C(c2ccccc2)c2ccccc2)cc1	150
Cc1cc(C)cc(CO[C@H]2C3CCN(CC3)[C@H]2C(c2ccccc2)c2ccccc2)c1 [L-706125]	1
